Measurements published in paper PMC2728345 (Toxicology and applied pharmacology, 2009).
Numbering of substitutions follows the chain as printed. “Also recorded” adds a separate entry of the source. Read-outs that look alike come from different tables or passages of the source.

Tests used:
human PXR variant S208F [1] = biological target: T1, human PXR variant S208F (Homo sapiens, UniProt O75469, S208F)
T1 sequence (O75469 1-434 S208F): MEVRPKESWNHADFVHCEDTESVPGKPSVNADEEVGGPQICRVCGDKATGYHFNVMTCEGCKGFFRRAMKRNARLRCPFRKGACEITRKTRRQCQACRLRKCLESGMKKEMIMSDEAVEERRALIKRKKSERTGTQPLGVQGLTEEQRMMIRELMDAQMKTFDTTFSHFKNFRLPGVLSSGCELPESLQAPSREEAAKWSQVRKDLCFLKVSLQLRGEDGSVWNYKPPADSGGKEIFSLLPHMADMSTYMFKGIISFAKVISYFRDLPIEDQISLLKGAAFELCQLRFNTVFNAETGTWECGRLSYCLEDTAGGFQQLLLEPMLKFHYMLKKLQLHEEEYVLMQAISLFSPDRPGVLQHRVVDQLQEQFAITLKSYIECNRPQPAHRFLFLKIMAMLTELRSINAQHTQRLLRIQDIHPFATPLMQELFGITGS

[2] = 50 µg protein, pyrethroid 200 µM mixed with equal volume, Tris-HCl pH 7.4, 37°C
carboxylesterase HCE2 [3] = biological target: T2, carboxylesterase HCE2 (Homo sapiens, UniProt O00748); assay: Hydrolysis of pyrethroids by recombinant HCE2; format: in vitro ADME; conditions: recombinant HCE2 vs HCE1 lysates, Tris-HCl pH 7.4
human PXR [4] = biological target: T3, human PXR (Homo sapiens, UniProt O75469); assay: Activation of human PXR in hPXR-HRE cells transfected with HCE1, HCE2 or vector; conditions: 10 µM; for effect of carboxylesterase cotransfection on PXR activation: hPXR-HRE cells transfected with HCE1 or HCE2 vs vector; for decrease in PXR activation, HCE1 versus HCE2 cotransfection: hPXR-HRE cells
T3 sequence (O75469 1-434): T1 sequence (O75469 1-434 S208F) with F208S

carboxylesterase HCE2 [5] = biological target: T2, carboxylesterase HCE2; conditions: Tris-HCl buffer pH 8.0; ref Nishi et al. (2006); cited from earlier work
carboxylesterase HCE1 = biological target: T4, carboxylesterase HCE1 (Homo sapiens, UniProt P23141); assay: Hydrolysis of pyrethroids by recombinant HCE1; format: in vitro ADME; conditions: recombinant HCE1 vs HCE2 lysates, Tris-HCl pH 7.4
T4 sequence (P23141 18-567): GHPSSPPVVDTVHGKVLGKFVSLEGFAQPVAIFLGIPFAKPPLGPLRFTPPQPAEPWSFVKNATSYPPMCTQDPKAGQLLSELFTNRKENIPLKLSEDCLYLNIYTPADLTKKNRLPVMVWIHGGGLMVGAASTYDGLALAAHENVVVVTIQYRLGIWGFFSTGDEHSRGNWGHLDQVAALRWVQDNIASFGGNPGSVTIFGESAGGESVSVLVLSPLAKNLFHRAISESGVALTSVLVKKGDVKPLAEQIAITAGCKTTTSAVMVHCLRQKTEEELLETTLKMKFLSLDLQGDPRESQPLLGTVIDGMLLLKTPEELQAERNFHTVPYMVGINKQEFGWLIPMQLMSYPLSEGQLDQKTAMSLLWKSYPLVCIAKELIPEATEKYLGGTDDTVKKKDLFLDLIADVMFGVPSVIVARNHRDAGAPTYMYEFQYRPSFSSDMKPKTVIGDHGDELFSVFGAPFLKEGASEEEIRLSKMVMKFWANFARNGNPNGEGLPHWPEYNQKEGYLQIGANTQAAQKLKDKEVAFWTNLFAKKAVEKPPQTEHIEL

rats or mice = conditions: in vivo, po; cited from earlier work
CYP3A4 = CYP3A4 expression in human primary hepatocytes; conditions: 10 µM, 24 h
human PXR variant L412I = biological target: T5, human PXR variant L412I (Homo sapiens, UniProt O75469, L412I); conditions: HepG2 cotransfection, 10 µM, 24 h
T5 sequence (O75469 1-434 L412I): T1 sequence (O75469 1-434 S208F) with F208S, L412I

HCE2 = HCE2 expression in human primary hepatocytes; format: cell-based; conditions: 10 µM, 24 h
human PXR variant S208F [6] = biological target: T1, human PXR variant S208F; conditions: HepG2 cotransfection, 10 µM, 24 h; words: compared with wild-type PXR
human PXR [7] = biological target: T3, human PXR; assay: Activation of human PXR in stable line hPXR-HRE; conditions: 10 µM, 24 h, ratio over DMSO

T2 sequence (O00748 27-559): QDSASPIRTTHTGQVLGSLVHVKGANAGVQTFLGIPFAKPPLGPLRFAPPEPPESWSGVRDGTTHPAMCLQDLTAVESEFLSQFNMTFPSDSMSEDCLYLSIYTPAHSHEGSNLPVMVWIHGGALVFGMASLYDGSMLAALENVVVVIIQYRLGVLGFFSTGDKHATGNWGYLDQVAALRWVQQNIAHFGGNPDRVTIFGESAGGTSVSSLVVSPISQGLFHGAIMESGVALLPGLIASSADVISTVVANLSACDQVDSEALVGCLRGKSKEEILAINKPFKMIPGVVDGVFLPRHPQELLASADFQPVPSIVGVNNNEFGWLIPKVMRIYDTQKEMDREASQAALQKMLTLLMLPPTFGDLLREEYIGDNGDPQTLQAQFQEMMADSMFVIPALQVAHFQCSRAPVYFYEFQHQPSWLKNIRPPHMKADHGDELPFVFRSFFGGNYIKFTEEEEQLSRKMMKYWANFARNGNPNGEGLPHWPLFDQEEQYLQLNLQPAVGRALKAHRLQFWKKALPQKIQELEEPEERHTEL

SMILES | activation of PXR variant S208F (human PXR variant S208F [1]) [fold] | hydrolysis by pooled human liver microsomes (rate group / extent, in words) [2] | preference for hydrolysis by HCE2 over HCE1 (carboxylesterase HCE2 [3]) | effect of carboxylesterase cotransfection on PXR activation (human PXR [4]) | decrease in PXR activation, HCE1 versus HCE2 cotransfection (human PXR [4]) | selective hydrolysis HCE2 vs HCE1 (literature) (carboxylesterase HCE2 [5]) | preference for hydrolysis by HCE1 over HCE2 (words) (carboxylesterase HCE1) | LD50 (rats or mice) [mg/kg] | CYP3A4 protein (Western blotting) (CYP3A4) | activation of PXR variant L412I compared with wild-type PXR (human PXR variant L412I) | HCE2 protein (Western blotting) (HCE2) | activation of PXR variant S208F (human PXR variant S208F [6]) | activation of human PXR (human PXR [7])
CC1(C)C(C=C(Cl)Cl)C1C(=O)OC(C#N)c1ccc(F)c(Oc2ccccc2)c1 (stereo not shown) [Baythroid] | 10.6 | moderate rate | HCE2 preferably hydrolyzed |  |  |  |  |  |  |  |  |  | 
CC1(C)[C@H](C(=O)O[C@H](C#N)c2cccc(Oc3ccccc3)c2)[C@@H]1C=C(Br)Br [Deltamethrin] |  | high rate |  | markedly decreased | much more decreases | better substrate of HCE2 | much more active than HCE2; also recorded: preferably hydrolyzed by HCE1 | 535 |  |  |  |  | 
CC1(C)[C@H](C(=O)O[C@H](C#N)c2cccc(Oc3ccccc3)c2)[C@@H]1/C=C(\Cl)C(F)(F)F (racemic) [lambda-Cyhalothrin] |  | moderate rate |  | markedly decreased | much more decreases |  | HCE1 preferably hydrolyzed; also recorded: much more active than HCE2 | 56 | significant increase | less extent than the wild-type PXR | but not HCE1 or HCE2 protein | no differences | stronger activator of human PXR
